Data as given in PMC7594079, “Insights into the Function and Evolution of Taste 1 Receptor Gene Family in the Carnivore Fish Gilthead Seabream (Sparus aurata)” (International Journal of Molecular Sciences, 2020).

Legend:
[1] = system: saT1R1/R3, saT1R2a/R3 and saT1R2b/R3; test: Screen of 20 L-AAs for dose-response activation of the three saT1R heterodimers in Cl.3 cells; type: cell-based, Sparus aurata; details: up to eight concentrations, 10 nM to 100 mM
Protocol: (§1) saT1Rs (saT1R1, saT1R2a, saT1R2b saT1R3) and saGαi1-2 genes were RT-PCR amplified using 5’ and 3’ flanking primers carrying HindIII and XhoI restriction sites, respectively. Gel-purified fragments were cloned into pGEM-T Easy vectors, re-sequenced, digested and subcloned into pcDNA™3 (Invitrogen, Carlsbad, CA, USA). Effective saT1R cloning into pcDNA™3 was further verified by HindIII/XhoI digestion. Transient co-transfections were done in 6-well plates (confluence ~70–80%) using 100 μL of reduced serum medium (Opti-MEM, Gibco, Thermo Fisher, Saint Louis, MO, USA) containing 150 ng of each selected pcDNA™3 construct, 1:10 charge ratio of Enhanced Green Fluorescent expressing construct (EGFP; positive control), and pBluescript II SK (+) vector DNA (Addgene, Watertown, MA, USA) up to 1 µg of totally transfected DNA. Following 24 h incubation, cells were washed with fresh standard medium and plated in polylysine treated plates for additional 24 h. Cells were then stimulated with L-AAs and sugar compounds for 18 h in a reduced assay medium (BME w/o L-glutamate; Gibco, Thermo Fisher, Saint Louis, MO, USA) + 1% FBS), to prevent unspecific Ca^2+/NFAT signaling activation and potential saT1R desensitization. All L-AAs and sugars used for in vitro experiments were obtained from Merck KGaA (Darmstadt, Germany).

saT1R1/R3 = molecular target: T1, saT1R1/R3 (Sparus aurata, UniProt A0A671TNH8+A0A671VZB3); test: saT1R1/R3 heterodimer transiently transfected in stable pGL3-NFAT-luc-HEK293 (Cl.3) cells, luciferase reporter; type: cell-based; details: as molarity; decimal comma
T1 sequence (A0A671TNH8 23-847): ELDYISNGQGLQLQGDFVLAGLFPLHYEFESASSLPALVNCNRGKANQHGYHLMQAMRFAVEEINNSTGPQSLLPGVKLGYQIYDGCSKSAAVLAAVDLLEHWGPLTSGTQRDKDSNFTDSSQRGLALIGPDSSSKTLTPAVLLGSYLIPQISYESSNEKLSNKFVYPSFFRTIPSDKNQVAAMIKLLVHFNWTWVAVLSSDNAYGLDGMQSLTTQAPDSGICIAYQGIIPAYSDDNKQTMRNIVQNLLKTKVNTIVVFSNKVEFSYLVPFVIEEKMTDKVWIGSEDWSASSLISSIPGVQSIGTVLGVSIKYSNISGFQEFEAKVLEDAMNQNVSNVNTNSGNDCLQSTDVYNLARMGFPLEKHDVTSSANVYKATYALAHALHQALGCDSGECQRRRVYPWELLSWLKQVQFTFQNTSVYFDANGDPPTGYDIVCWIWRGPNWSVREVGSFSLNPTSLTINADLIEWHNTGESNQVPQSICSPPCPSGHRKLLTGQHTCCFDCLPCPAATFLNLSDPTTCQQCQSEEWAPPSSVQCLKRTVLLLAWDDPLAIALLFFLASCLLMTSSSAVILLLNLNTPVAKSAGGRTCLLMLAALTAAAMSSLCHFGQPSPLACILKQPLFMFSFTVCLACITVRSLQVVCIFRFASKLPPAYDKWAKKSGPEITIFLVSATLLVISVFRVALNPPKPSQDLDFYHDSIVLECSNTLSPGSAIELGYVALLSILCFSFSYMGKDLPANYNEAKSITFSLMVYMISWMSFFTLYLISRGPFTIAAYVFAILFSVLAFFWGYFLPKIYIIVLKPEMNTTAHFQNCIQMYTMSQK
T1 sequence (A0A671VZB3 24-860): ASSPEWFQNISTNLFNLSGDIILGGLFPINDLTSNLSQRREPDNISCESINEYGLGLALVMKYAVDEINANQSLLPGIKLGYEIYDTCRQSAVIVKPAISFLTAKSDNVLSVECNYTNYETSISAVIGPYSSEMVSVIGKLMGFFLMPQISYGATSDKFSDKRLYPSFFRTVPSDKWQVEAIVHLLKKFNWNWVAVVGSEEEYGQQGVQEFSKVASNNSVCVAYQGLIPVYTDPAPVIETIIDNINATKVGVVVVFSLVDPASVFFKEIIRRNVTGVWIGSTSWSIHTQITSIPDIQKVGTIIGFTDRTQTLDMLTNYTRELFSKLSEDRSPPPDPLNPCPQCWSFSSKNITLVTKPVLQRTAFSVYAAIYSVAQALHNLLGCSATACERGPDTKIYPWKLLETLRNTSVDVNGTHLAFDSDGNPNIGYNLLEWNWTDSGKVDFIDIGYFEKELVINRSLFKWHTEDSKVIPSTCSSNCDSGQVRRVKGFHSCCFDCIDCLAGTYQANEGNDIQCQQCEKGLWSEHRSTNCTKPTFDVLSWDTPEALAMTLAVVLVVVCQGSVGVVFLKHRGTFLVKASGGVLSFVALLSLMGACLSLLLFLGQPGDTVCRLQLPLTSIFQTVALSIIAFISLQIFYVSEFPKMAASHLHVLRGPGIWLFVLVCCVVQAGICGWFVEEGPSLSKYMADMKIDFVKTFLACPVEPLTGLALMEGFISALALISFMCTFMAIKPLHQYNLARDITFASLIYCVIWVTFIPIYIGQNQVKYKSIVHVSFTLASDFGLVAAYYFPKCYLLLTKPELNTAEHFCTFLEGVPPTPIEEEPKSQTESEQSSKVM
Excerpt: Figure 6 Amino acid Log-dose response curves of activation in heterologous co-transfected (Cl.3) cells with saT1R1/3 (green dots), saT1R2a/3 (red squares) and saT1R2b/3 (black triangles) heterodimers. Evaluation of L-AA responses was based on the RLU mean ± SEM of four independent determinations normalized to the mean response of the same transfections stimulated with reduced assay medium (Basal Medium Eagle w/o L-glutamate (BME) + 1% FBS), and expressed as the percentage relative to basal levels (BL).
HEK293 cells were cultured in standard medium DMEM (Gibco, Thermo Fisher, Saint Louis, MO, USA) containing 10% FBS, penicillin (100 U/mL) and streptomycin ([…]) at 37 °C, with a humidified atmosphere at 5% CO2. pGL3-NFAT-luc-HEK293 stable clones were generated by co-transfections of pGL3-NFAT-luc and tgCMV/HyTK plasmids (50:1), the latter harboring the hygromycin phosphotransferase gene, using Lipofectamine LTX according to supplier’s protocols (Thermo Fisher, Saint Louis, MO, USA). Initially, HEK293 cells were selected using DMEM containing 400 μg/mL hygromycin B (Sigma, Darmstadt, Germany) in 24-well plates for two weeks; 24 colonies were further grown out in 96-well plates under reduced hygromycin selection (200 µg/mL) for three weeks. Potentially resistant NFAT-luc-HEK293 clones (n = 22) were validated after incubation in assay medium (DMEM + 1% FBS) containing PMA or Ionomycin (Sigma, Darmstadt, Germany) for 18 h (triplicates, 50,000 cells/well). Luciferase activity was quantified with ONE-Glo™ EX Reagent Kit (Promega, Madison, WI, USA) using a 96-microplate TECAN reader (Trading AG, Switzerland).
as §1

O=C(O)[C@@H]1CCCN1 [Pro, Proline]
dose-response activation for at least one of the three saT1R heterodimers [1]: generated a dose-response activation
T1R1/R3 [MSD] maximum stimulation dose (saT1R1/R3): 1,00 × 10^-1 M

C[C@@H](O)[C@H](N)C(=O)O [Thr, Threonine]
dose-response activation for at least one of the three saT1R heterodimers [1]: generated a dose-response activation
T1R1/R3 [MSD] maximum stimulation dose (saT1R1/R3): 1,00 × 10^-1 M

CC(C)C[C@H](N)C(=O)O [Leu, Leucine]
dose-response activation for at least one of the three saT1R heterodimers [1]: generated a dose-response activation
T1R1/R3 [MSD] maximum stimulation dose (saT1R1/R3): 1,00 × 10^-1 M

NCCCC[C@H](N)C(=O)O [Lys, Lysine]
dose-response activation for at least one of the three saT1R heterodimers [1]: did not respond in a dose-response manner
T1R1/R3 [MSD] maximum stimulation dose (saT1R1/R3): 1,00 × 10^-3 M

N[C@@H](CC(=O)O)C(=O)O [Asp, Aspartic acid]
dose-response activation for at least one of the three saT1R heterodimers [1]: did not respond in a dose-response manner
T1R1/R3 [MSD] maximum stimulation dose (saT1R1/R3): 1,00 × 10^-5 M

CSCC[C@H](N)C(=O)O [Met, Methionine]
dose-response activation for at least one of the three saT1R heterodimers [1]: generated a dose-response activation
T1R1/R3 [MSD] maximum stimulation dose (saT1R1/R3): 1,00 × 10^-1 M

N[C@@H](CO)C(=O)O [Ser, Serine]
dose-response activation for at least one of the three saT1R heterodimers [1]: generated a dose-response activation
T1R1/R3 [MSD] maximum stimulation dose (saT1R1/R3): 1,00 × 10^-1 M

CC[C@H](C)[C@H](N)C(=O)O [Ile, Isoleucine]
dose-response activation for at least one of the three saT1R heterodimers [1]: generated a dose-response activation
T1R1/R3 [MSD] maximum stimulation dose (saT1R1/R3): 1,00 × 10^-1 M

N[C@@H](Cc1c[nH]cn1)C(=O)O [His, Histidine]
dose-response activation for at least one of the three saT1R heterodimers [1]: did not respond in a dose-response manner
T1R1/R3 [MSD] maximum stimulation dose (saT1R1/R3): 1,00 × 10^-5 M

N[C@@H](Cc1ccccc1)C(=O)O [Phe, Phenylalanine]
dose-response activation for at least one of the three saT1R heterodimers [1]: did not respond in a dose-response manner
T1R1/R3 [MSD] maximum stimulation dose (saT1R1/R3): 1,00 × 10^-2 M

N[C@@H](CCC(=O)O)C(=O)O [Glu, Glutamic acid]
dose-response activation for at least one of the three saT1R heterodimers [1]: generated a dose-response activation
T1R1/R3 [MSD] maximum stimulation dose (saT1R1/R3): 1,00 × 10^-2 M

NCC(=O)O [Gly, Glycine]
dose-response activation for at least one of the three saT1R heterodimers [1]: generated a dose-response activation
T1R1/R3 [MSD] maximum stimulation dose (saT1R1/R3): 1,00 × 10^-1 M

N[C@@H](CS)C(=O)O [Cys, Cysteine]
dose-response activation for at least one of the three saT1R heterodimers [1]: did not respond in a dose-response manner
T1R1/R3 [MSD] maximum stimulation dose (saT1R1/R3): 1,00 × 10^-4 M

CC(C)[C@H](N)C(=O)O [Val, Valine]
dose-response activation for at least one of the three saT1R heterodimers [1]: generated a dose-response activation
T1R1/R3 [MSD] maximum stimulation dose (saT1R1/R3): 1,00 × 10^-1 M

N[C@@H](Cc1ccc(O)cc1)C(=O)O [Tyr, Tyrosine]
dose-response activation for at least one of the three saT1R heterodimers [1]: did not respond in a dose-response manner
T1R1/R3 [MSD] maximum stimulation dose (saT1R1/R3): 1,00 × 10^-3 M

NC(=O)C[C@H](N)C(=O)O [Asn, Asparagine]
dose-response activation for at least one of the three saT1R heterodimers [1]: did not respond in a dose-response manner
T1R1/R3 [MSD] maximum stimulation dose (saT1R1/R3): 1,00 × 10^-1 M

N[C@@H](Cc1c[nH]c2ccccc12)C(=O)O [Trp, Tryptophan]
dose-response activation for at least one of the three saT1R heterodimers [1]: did not respond in a dose-response manner
T1R1/R3 [MSD] maximum stimulation dose (saT1R1/R3): 1,00 × 10^-3 M

NC(=O)CC[C@H](N)C(=O)O [Gln, Glutamine]
dose-response activation for at least one of the three saT1R heterodimers [1]: generated a dose-response activation
T1R1/R3 [MSD] maximum stimulation dose (saT1R1/R3): 1,00 × 10^-1 M

C[C@H](N)C(=O)O [Ala, Alanine]
dose-response activation for at least one of the three saT1R heterodimers [1]: generated a dose-response activation
T1R1/R3 [MSD] maximum stimulation dose (saT1R1/R3): 1,00 × 10^-1 M

N=C(N)NCCC[C@H](N)C(=O)O [Arg, Arginine]
dose-response activation for at least one of the three saT1R heterodimers [1]: did not respond in a dose-response manner
T1R1/R3 [MSD] maximum stimulation dose (saT1R1/R3): 1,00 × 10^-5 M
